Reference: ChEMBL document CHEMBL6121050 (J Med Chem, 2025)
Activity calls are given as the source filed them. No cut-off for these calls is given here.

Key:
[1] = molecular target: T1, Protein cereblon/Eukaryotic peptide chain release factor GTP-binding subunit ERF3A (Homo sapiens, UniProt Q96SW2+P15170); experiment: PROTAC activity at CRBN/GSPT1 in human KG-1 cells assessed as induction of degradation of GSPT1 at 200 nM incubated for 4 hrs by immunoblot analysis relative to control; assay type: cell-based
[2] = Half life in mouse at 2 mg/kg, iv; assay type: ADME, organism-based; settings: in vivo
[3] = Tmax in mouse at 10 mg/kg, po; assay type: ADME, organism-based; settings: in vivo
[4] = Half life in Beagle dog at 2 mg/kg, iv; assay type: ADME, organism-based, Canis lupus familiaris; settings: in vivo
[5] = molecular target: T1, Protein cereblon/Eukaryotic peptide chain release factor GTP-binding subunit ERF3A; experiment: PROTAC activity at SmBiT tagged CRBN/LgBiT tagged GSPT1 in HEK293T cells assessed as […] incubated for 4 hrs by NanoBiT recruitment assay; assay type: cell-based
KG-1 [6] = experiment: Induction of apoptosis in human KG-1 cells assessed as viable cells at 200 nM incubated for 12 hrs by annexin V-FITC and PI staining based flow cytometry analysis (reference value: 87.9%); assay type: functional
KG-1 [7] = experiment: Induction of apoptosis in human KG-1 cells assessed as early apoptotic cells at 50 nM incubated for 12 hrs by annexin V-FITC and PI staining based flow cytometry analysis (reference value: 6.24%); assay type: functional
[8] = Toxicity in nude Balb/c mouse assessed as effect on heart at 5 to 30 mg/kg, po administered once daily for 14 days by H and E staining based analysis; assay type: organism-based; settings: in vivo, 336 h, dose 5-30 mg/kg, time 14 day
[9] = Toxicity in ICR mouse assessed as effect on animal mental state at 3000 mg/kg, po; assay type: organism-based; settings: in vivo
[10] = Acute toxicity in male Sprague-Dawley rat assessed as effect on organ weight at 400 mg/kg/day, po measured within 7 days; assay type: organism-based; settings: in vivo, 168 h, time 7 day
[11] = Acute toxicity in Sprague-Dawley rat assessed as effect on reticulocyte at 100 to 400 mg/kg/day, po measured within 7 days; assay type: organism-based; settings: in vivo, 168 h, dose 100-400 mg/kg/day, time 7 day

T1 sequence (P15170 whole entry, looked up): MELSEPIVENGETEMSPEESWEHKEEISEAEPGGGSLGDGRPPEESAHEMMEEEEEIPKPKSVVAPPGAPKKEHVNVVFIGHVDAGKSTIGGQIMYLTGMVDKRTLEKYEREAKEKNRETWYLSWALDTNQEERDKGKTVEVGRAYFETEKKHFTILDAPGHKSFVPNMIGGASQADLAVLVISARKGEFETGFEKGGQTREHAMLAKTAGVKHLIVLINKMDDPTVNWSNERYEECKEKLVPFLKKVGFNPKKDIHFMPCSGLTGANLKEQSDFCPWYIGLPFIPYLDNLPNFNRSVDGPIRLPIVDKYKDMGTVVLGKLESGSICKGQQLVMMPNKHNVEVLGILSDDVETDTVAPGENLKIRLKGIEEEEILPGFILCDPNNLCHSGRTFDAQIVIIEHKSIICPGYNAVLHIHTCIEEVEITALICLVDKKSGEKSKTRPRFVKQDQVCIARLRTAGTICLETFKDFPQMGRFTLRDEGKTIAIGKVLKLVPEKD
T1 sequence (Q96SW2 whole entry, looked up): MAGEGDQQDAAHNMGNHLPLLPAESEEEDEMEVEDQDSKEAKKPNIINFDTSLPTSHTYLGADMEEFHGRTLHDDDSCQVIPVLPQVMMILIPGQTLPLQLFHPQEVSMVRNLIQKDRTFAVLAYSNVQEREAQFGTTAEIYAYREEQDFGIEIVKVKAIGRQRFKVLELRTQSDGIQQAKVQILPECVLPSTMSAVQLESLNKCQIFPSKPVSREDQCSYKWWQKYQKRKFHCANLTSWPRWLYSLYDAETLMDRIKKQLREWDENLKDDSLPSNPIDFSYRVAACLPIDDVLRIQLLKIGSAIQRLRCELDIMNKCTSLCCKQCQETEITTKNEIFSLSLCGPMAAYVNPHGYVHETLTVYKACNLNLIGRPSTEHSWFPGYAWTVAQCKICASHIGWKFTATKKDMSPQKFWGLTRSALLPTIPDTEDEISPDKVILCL

O=C1CCC(N2Cc3cc(CNC(=O)C4=Cc5cc(OC(F)(F)F)ccc5OC4)ccc3C2=O)C(=O)N1 (stereo unspecified)
Activity [1]: 92.4% | half-life [2]: 1.12 h | Tmax [3]: 0.41 h | half-life [4]: 1.01 h | Activity [5]: Active | Activity (KG-1 [6]): 23.1% | Activity (KG-1 [7]): 39.1% | Activity [8]: Non-toxic | Activity [9]: Non-toxic | Activity [10]: Non-toxic | Activity [11]: Non-toxic
